# Measurements: PMC10326263 (Acta Pharmaceutica Sinica. B, 2023)
# Legend:
# [1] = tested on: HIV-1 mutant strain Y181C; experiment: microbe, parasite or virus in culture; assay type: cell-based; conditions: Human immunodeficiency virus 1, MT4, read-out: EC50 Y181C
# [2] = Cytotoxicity in mock-infected MT-4 cells, MTT method; assay type: cell-based; conditions: human, mock-infected MT-4 cells, CC50, mock-infected MT-4 cells
# [3] = tested on: HIV-1 mutant strain Y188L; experiment: microbe, parasite or virus in culture; assay type: cell-based; conditions: Human immunodeficiency virus 1, MT4, read-out: EC50 Y188L
# [4] = tested on: HIV-1 mutant strain F227L + V106A; experiment: microbe, parasite or virus in culture; assay type: cell-based; conditions: Human immunodeficiency virus 1, MT4, read-out: EC50 F227L + V106A
# [5] = tested on: HIV-1 mutant strain RES056 (K103N + Y181C); experiment: microbe, parasite or virus in culture; assay type: cell-based; conditions: Human immunodeficiency virus 1, MT4, read-out: EC50 RES056
# [6] = tested on: HIV-1 mutant strain K103N; experiment: microbe, parasite or virus in culture; assay type: cell-based; conditions: Human immunodeficiency virus 1, MT4, read-out: EC50 K103N
# [7] = tested on: HIV-1 mutant strain L100I; experiment: microbe, parasite or virus in culture; assay type: cell-based; conditions: Human immunodeficiency virus 1, MT4, read-out: EC50 L100I
# [8] = tested on: HIV-1 mutant strain E138K; experiment: microbe, parasite or virus in culture; assay type: cell-based; conditions: Human immunodeficiency virus 1, MT4, read-out: EC50 E138K
# [9] = tested on: HIV-1 WT strain (IIIB); experiment: Anti-HIV activity against WT HIV-1; conditions: WT HIV-1 IIIB
smiles,measurement,setting,value
"O=C1Nc2ccc(Cl)cc2[C@@](C#CC2CC2)(C(F)(F)F)O1 [EFV, Efavirenz, reference compound]",EC50,[1],7 ± 2 nM
same,CC50 at 5 days,[2],> 6340 nM
same,EC50,[3],270 ± 16 nM
same,EC50,[4],270 ± 48 nM
same,EC50,[5],480 ± 190 nM
same,EC50,[6],100 ± 19 nM
same,EC50,[7],32 ± 6 nM
same,EC50,[8],7 ± 1 nM
"Cc1cc(C#N)cc(C)c1Oc1nc(Nc2ccc(C#N)cc2)nc(N)c1Br [ETR, Etravirine, reference compound]",EC50,[1],58 ± 41 nM
same,CC50 at 5 days,[2],> 4590 nM
same,EC50,[3],83 ± 53 nM
same,EC50,[4],88 ± 76 nM
same,EC50,[5],150 ± 120 nM
same,SI IIIB (CC50/EC50 ratio),[9],>900
same,EC50,[6],15 ± 12 nM
same,EC50,[7],32 ± 28 nM
same,EC50,[8],37 ± 30 nM
"Cc1ccnc2c1NC(=O)c1cccnc1N2C1CC1 [NVP, Nevirapine, reference compound]",EC50,[1],> 9520 nM
same,CC50 at 5 days,[2],> 15000 nM
same,EC50,[3],> 9520 nM
same,EC50,[4],> 9520 nM
same,EC50,[5],> 9520 nM
same,SI IIIB (CC50/EC50 ratio),[9],>114
same,EC50,[6],5330 ± 1070 nM
same,EC50,[7],1260 ± 600 nM
same,EC50,[8],95 ± 31 nM
"Cc1ccc(S(=O)(=O)NCCNC(=O)c2[nH]c3ccc(Cl)cc3c2S(=O)(=O)c2cc(C)cc(C)c2)cc1 [R1L2, 5-Chloro-3-((3,5-dimethylphenyl)sulfonyl)-N-(2-((4-methylphenyl)sulfonamido)ethyl)-1H-indole-2-carboxamide]",EC50,[1],610 ± 130 nM
same,CC50 at 5 days,[2],168000 ± 17200 nM
same,EC50,[3],6420 ± 1400 nM
same,EC50,[4],1750 ± 200 nM
same,EC50,[5],3380 ± 890 nM
same,SI IIIB (CC50/EC50 ratio),[9],3787
same,EC50,[6],410 ± 110 nM
same,EC50,[7],680 ± 390 nM
same,EC50,[8],860 ± 360 nM
"Cc1ccc(S(=O)(=O)NCCCNC(=O)c2[nH]c3ccc(Cl)cc3c2S(=O)(=O)c2cc(C)cc(C)c2)cc1 [R1L3, 5-Chloro-3-((3,5-dimethylphenyl)sulfonyl)-N-(3-((4-methylphenyl)sulfonamido)propyl)-1H-indole-2-carboxamide]",EC50,[1],1190 ± 300 nM
same,CC50 at 5 days,[2],168000 ± 23500 nM
same,EC50,[3],7140 ± 1400 nM
same,EC50,[4],1260 ± 380 nM
same,EC50,[5],5970 ± 650 nM
same,SI IIIB (CC50/EC50 ratio),[9],4586
same,EC50,[6],730 ± 140 nM
same,EC50,[7],540 ± 420 nM
same,EC50,[8],210 ± 140 nM
"Cc1ccc(S(=O)(=O)NCCCCNC(=O)c2[nH]c3ccc(Cl)cc3c2S(=O)(=O)c2cc(C)cc(C)c2)cc1 [R1L4, 5-Chloro-3-((3,5-dimethylphenyl)sulfonyl)-N-(4-((4-methylphenyl)sulfonamido)butyl)-1H-indole-2-carboxamide]",EC50,[1],310 ± 68 nM
same,CC50 at 5 days,[2],103000 ± 59800 nM
same,EC50,[3],1520 ± 270 nM
same,EC50,[4],310 ± 34 nM
same,EC50,[5],> 103000 nM
same,SI IIIB (CC50/EC50 ratio),[9],3232
same,EC50,[6],310 ± 68 nM
same,EC50,[7],160 ± 85 nM
same,EC50,[8],130 ± 85 nM
"Cc1ccc(S(=O)(=O)NCCCCCNC(=O)c2[nH]c3ccc(Cl)cc3c2S(=O)(=O)c2cc(C)cc(C)c2)cc1 [R1L5, 5-Chloro-3-((3,5-dimethylphenyl)sulfonyl)-N-(5-((4-methylphenyl)sulfonamido)pentyl)-1H-indole-2-carboxamide]",EC50,[1],230 ± 17 nM
same,CC50 at 5 days,[2],113000 ± 3740 nM
same,EC50,[3],2530 ± 180 nM
same,EC50,[4],380 ± 130 nM
same,EC50,[5],> 113000 nM
same,SI IIIB (CC50/EC50 ratio),[9],4159
same,EC50,[6],630 ± 17 nM
same,EC50,[7],170 ± 17 nM
same,EC50,[8],180 ± 17 nM
"COc1ccc(S(=O)(=O)NCCNC(=O)c2[nH]c3ccc(Cl)cc3c2S(=O)(=O)c2cc(C)cc(C)c2)cc1 [R2L2, 5-Chloro-3-((3,5-dimethylphenyl)sulfonyl)-N-(2-((4-methoxyphenyl)sulfonamido)ethyl)-1H-indole-2-carboxamide]",EC50,[1],850 ± 35 nM
same,CC50 at 5 days,[2],106000 ± 23000 nM
same,EC50,[3],> 106000 nM
same,EC50,[4],1580 ± 450 nM
same,EC50,[5],> 106000 nM
same,SI IIIB (CC50/EC50 ratio),[9],1233
same,EC50,[6],900 ± 380 nM
same,EC50,[7],660 ± 230 nM
same,EC50,[8],1110 ± 170 nM
"COc1ccc(S(=O)(=O)NCCCNC(=O)c2[nH]c3ccc(Cl)cc3c2S(=O)(=O)c2cc(C)cc(C)c2)cc1 [R2L3, 5-Chloro-3-((3,5-dimethylphenyl)sulfonyl)-N-(3-((4-methoxyphenyl)sulfonamido)propyl)-1H-indole-2-carboxamide]",EC50,[1],830 ± 68 nM
same,CC50 at 5 days,[2],163000 ± 15300 nM
same,EC50,[3],5980 ± 310 nM
same,EC50,[4],970 ± 51 nM
same,EC50,[5],> 163000 nM
same,SI IIIB (CC50/EC50 ratio),[9],4354
same,EC50,[6],660 ± 85 nM
same,EC50,[7],320 nM
same,EC50,[8],250 nM
"COc1ccc(S(=O)(=O)NCCCCNC(=O)c2[nH]c3ccc(Cl)cc3c2S(=O)(=O)c2cc(C)cc(C)c2)cc1 [R2L4, 5-Chloro-3-((3,5-dimethylphenyl)sulfonyl)-N-(4-((4-methoxyphenyl)sulfonamido)butyl)-1H-indole-2-carboxamide]",EC50,[1],330 nM
same,CC50 at 5 days,[2],22500 ± 9140 nM
same,EC50,[3],800 ± 83 nM
same,EC50,[4],280 ± 33 nM
same,EC50,[5],> 22500 nM
same,SI IIIB (CC50/EC50 ratio),[9],615
same,EC50,[6],330 ± 33 nM
same,EC50,[7],180 nM
same,EC50,[8],250 ± 50 nM
"COc1ccc(S(=O)(=O)NCCCCCNC(=O)c2[nH]c3ccc(Cl)cc3c2S(=O)(=O)c2cc(C)cc(C)c2)cc1 [R2L5, 5-Chloro-3-((3,5-dimethylphenyl)sulfonyl)-N-(5-((4-methoxyphenyl)sulfonamido)pentyl)-1H-indole-2-carboxamide]",EC50,[1],190 ± 16 nM
same,CC50 at 5 days,[2],110000 ± 7890 nM
same,EC50,[3],1280 ± 440 nM
same,EC50,[4],280 ± 65 nM
same,EC50,[5],> 110000 nM
same,SI IIIB (CC50/EC50 ratio),[9],4772
same,EC50,[6],570 nM
same,EC50,[7],94 ± 47 nM
same,EC50,[8],130 ± 49 nM
"Cc1cc(C)cc(S(=O)(=O)c2c(C(=O)NCCNS(=O)(=O)c3ccc([N+](=O)[O-])cc3)[nH]c3ccc(Cl)cc23)c1 [R3L2, 5-Chloro-3-((3,5-dimethylphenyl)sulfonyl)-N-(2-((4-nitrophenyl)sulfonamido)ethyl)-1H-indole-2-carboxamide]",EC50,[1],1000 ± 170 nM
same,CC50 at 5 days,[2],> 212000 nM
same,EC50,[3],> 212000 nM
same,EC50,[4],6170 ± 1140 nM
same,EC50,[5],> 212000 nM
same,SI IIIB (CC50/EC50 ratio),[9],>1764
same,EC50,[6],590 ± 100 nM
same,EC50,[7],950 ± 85 nM
same,EC50,[8],1150 nM
"Cc1cc(C)cc(S(=O)(=O)c2c(C(=O)NCCCNS(=O)(=O)c3ccc([N+](=O)[O-])cc3)[nH]c3ccc(Cl)cc23)c1 [R3L3, 5-Chloro-3-((3,5-dimethylphenyl)sulfonyl)-N-(3-((4-nitrophenyl)sulfonamido)propyl)-1H-indole-2-carboxamide]",EC50,[1],1030 ± 50 nM
same,CC50 at 5 days,[2],23000 ± 600 nM
same,EC50,[3],3290 ± 66 nM
same,EC50,[4],1770 ± 33 nM
same,EC50,[5],4920 ± 1270 nM
same,SI IIIB (CC50/EC50 ratio),[9],464
same,EC50,[6],730 ± 120 nM
same,EC50,[7],350 ± 17 nM
same,EC50,[8],310 ± 50 nM
"Cc1cc(C)cc(S(=O)(=O)c2c(C(=O)NCCCCNS(=O)(=O)c3ccc([N+](=O)[O-])cc3)[nH]c3ccc(Cl)cc23)c1 [R3L4, 5-Chloro-3-((3,5-dimethylphenyl)sulfonyl)-N-(4-((4-nitrophenyl)sulfonamido)butyl)-1H-indole-2-carboxamide]",EC50,[1],400 ± 110 nM
same,CC50 at 5 days,[2],104000 ± 31400 nM
same,EC50,[3],870 ± 65 nM
same,EC50,[4],360 ± 32 nM
same,EC50,[5],1880 ± 680 nM
same,SI IIIB (CC50/EC50 ratio),[9],3809
same,EC50,[6],500 ± 160 nM
same,EC50,[7],130 ± 18 nM
same,EC50,[8],230 ± 32 nM
"Cc1cc(C)cc(S(=O)(=O)c2c(C(=O)NCCCCCNS(=O)(=O)c3ccc([N+](=O)[O-])cc3)[nH]c3ccc(Cl)cc23)c1 [R3L5, 5-Chloro-3-((3,5-dimethylphenyl)sulfonyl)-N-(5-((4-nitrophenyl)sulfonamido)pentyl)-1H-indole-2-carboxamide]",EC50,[1],300 nM
same,CC50 at 5 days,[2],> 198000 nM
same,EC50,[3],2470 ± 160 nM
same,EC50,[4],540 ± 140 nM
same,EC50,[5],25140 ± 47 nM
same,SI IIIB (CC50/EC50 ratio),[9],>7548
same,EC50,[6],900 ± 79 nM
same,EC50,[7],130 ± 6.3 nM
same,EC50,[8],250 ± 32 nM
"Cc1cc(C)cc(S(=O)(=O)c2c(C(=O)NCCNS(=O)(=O)c3ccc(F)cc3)[nH]c3ccc(Cl)cc23)c1 [R4L2, 5-Chloro-3-((3,5-dimethylphenyl)sulfonyl)-N-(2-((4-fluorophenyl)sulfonamido)ethyl)-1H-indole-2-carboxamide]",EC50,[1],370 ± 140 nM
same,CC50 at 5 days,[2],> 222000 nM
same,EC50,[3],3000 ± 53 nM
same,EC50,[4],830 ± 120 nM
same,EC50,[5],3230 ± 18 nM
same,SI IIIB (CC50/EC50 ratio),[9],>7921
same,EC50,[6],360 ± 160 nM
same,EC50,[7],210 ± 36 nM
same,EC50,[8],370 ± 110 nM
"Cc1cc(C)cc(S(=O)(=O)c2c(C(=O)NCCCNS(=O)(=O)c3ccc(F)cc3)[nH]c3ccc(Cl)cc23)c1 [R4L3, 5-Chloro-3-((3,5-dimethylphenyl)sulfonyl)-N-(3-((4-fluorophenyl)sulfonamido)propyl)-1H-indole-2-carboxamide]",EC50,[1],690 ± 17 nM
same,CC50 at 5 days,[2],35000 ± 6970 nM
same,EC50,[3],2840 ± 52 nM
same,EC50,[4],1040 ± 35 nM
same,EC50,[5],3550 ± 350 nM
same,SI IIIB (CC50/EC50 ratio),[9],901
same,EC50,[6],450 ± 100 nM
same,EC50,[7],240 ± 35 nM
same,EC50,[8],260 ± 17 nM
"Cc1cc(C)cc(S(=O)(=O)c2c(C(=O)NCCCCNS(=O)(=O)c3ccc(F)cc3)[nH]c3ccc(Cl)cc23)c1 [R4L4, 5-Chloro-3-((3,5-dimethylphenyl)sulfonyl)-N-(4-((4-fluorophenyl)sulfonamido)butyl)-1H-indole-2-carboxamide]",EC50,[1],200 ± 34 nM
same,CC50 at 5 days,[2],> 211000 nM
same,EC50,[3],1270 ± 200 nM
same,EC50,[4],290 ± 120 nM
same,EC50,[5],> 211000 nM
same,SI IIIB (CC50/EC50 ratio),[9],">10,593"
same,EC50,[6],190 ± 51 nM
same,EC50,[7],56 ± 36 nM
same,EC50,[8],63 ± 3 nM
